In patent US20190256930A1, “BIOMARKERS FOR DETERMINING RESPONSIVENESS TO LSD1 INHIBITORS” (ORYZON GENOMICS, S.A., priority 2016, published 2019):
Where “and” joins values, the source holds several entries; their conditions need not be identical. Equal entries are not always repeated.

What was measured:
Format in all cases: in vivo, human
blast cells = experiment: Clinical response: morphological blast differentiation and blast counts in smears of bone marrow aspirate and/or peripheral blood, Phase I extension cohort
Text: As part of a Phase I clinical study assessing the human pharmacokinetics and safety of ORY-1001 in acute leukemia patients, an extension cohort of 14 patients (mean age 57; range 30-78, gender 8M/6F) was opened in order to provide a preliminary assessment of efficacy. A summary of the patients recruited in this extension cohort can be found in Table 1.
Preliminary clinical efficacy endpoints included (a) morphological blast differentiation and (b) decrease in blast %. In addition, gene expression determinations of selected markers were performed.
Each patient received ORY-1001 for oral intake as a solution at a dose of 140 microgram/m2/day (as free base) q.d., during 5 consecutive days with 2 days of rest, for 4 cycles (total of 28 days), or until disease progression or unacceptable toxicity was observed.
For the evaluation of the morphological blast differentiation and blast counts, smears of bone marrow aspirate and/or peripheral blood were prepared, stained by the May-Grünwald-Giemsa method, and microscopically examined in accordance with ICSH guidelines (ICSH guidelines for the standardization of bone marrow specimens and reports, Lee S H, Erber W N, Porwit A, Tomonaga M, Peterson L C; International Council for Standardization In Hematology, International journal of laboratory hematology 2008 October; 30(5):349-64).

ANXA2 = experiment: Gene expression by qRT-PCR in peripheral blood of acute leukemia patients; settings: individual patients, within 98 and 168 h after first dose, relative to HPRT1 and pre-dose, negative = up-regulation
Procedure: (§1) Plasma for pharmacokinetic determinations was separated by centrifugation. The remaining cell volume was resuspended in 2 mL PBS and an aliquot of […] was stabilized in a PAXgene® Blood RNA tube as described by the vendor and kept frozen for subsequent RNA extraction and qRT-PCR.
(§2) RNA extraction was performed using PAXgene® Blood RNA Kit (PreAnalytix) as described by the vendor. RNA quality was assessed using an Agilent 2100 Bioanalyzer™ and quantity was measured using a NanoDrop™ spectrophotometer.
(§3) An amount of 0.5 micrograms of total RNA was reverse transcribed to obtain 1st strand cDNA (iScript® Reverse Transcription Supermix for RTqPCR; Bio-Rad).
(§4) Gene expression was analyzed by qRT-PCR, a variant of the PCR (Polymerase Chain Reaction) method that permits the simultaneous exponential amplification and detection of specific cDNA fragments. Taqman gene expression assays were used, which employ the principle of doubly labeled hydrolysis probes marked with a fluorescent moiety at their 5′ end and with a quencher moiety at the 3′ end, which prevents the generation of fluorescence according to the Förster energy transfer principle.
(§5) In the exponential phase of the amplification reaction, the intensity of the fluorescence is directly proportional to the quantity of PCR product formed. The LightCycler® 480 Software determines the “crossing point” (Cp), i.e. the point where the reaction's fluorescence reaches the maximum of the second derivative of the amplification curve, which corresponds to the point where the acceleration of the fluorescence signal is at its maximum. The Cp values reflect the target mRNA concentration in the original RNA sample. Differences in Cp values (ΔCp) for a gene X of interest in a given sample relative to a control sample reflect changes in mRNA concentration of the gene X in a given amount of total RNA in the respective sample, and are calculated as:
(§6) ΔΔCp, gene X=[Cp(sample, gene X)−Cp(sample, reference gene)]−[Cp(control, gene X)−Cp(control, reference gene)]
(§7) The fold change in mRNA concentration is calculated as 2^−ΔΔCp, a negative ΔΔCp representing an increase in the expression level, and vice versa.
(§8) An amount of 0.5 micrograms of the 1st strand product was used to perform qRT-PCR reactions in triplicate (Taqman® gene expression assay, Life technologies, see Table 3) in a Roche LightCycler®480. In order to analyze the changes in the expression levels of ANXA2, CAMSAP2, CD86, CRISP9, CTSG, GPR65, ITGAM, LY96, LYZ, S100A12, VCAN, and VIM, ΔΔCp values for a given patient and time point were calculated as described above, relative to the endogenous reference gene HPRT1 and to a control sample obtained from the same patient at pre-dose (i.e. prior to administration of the first dose of ORY-1001 to said patient).
(§9) For the analysis of the gene expression data, the time point (or time interval) showing the maximum response is typically selected. This time point/interval may change depending on the specific dose, administration scheme, etc. In the present study, all the gene expression and correlation analysis was performed by using the data obtained after administration of day 5, i.e. within the time interval between 98 and 168 h after the first dose. The maximum response observed within this time interval is referred to in the tables herein as “Maximum response (ΔΔCp) on day 5”.

CAMSAP2 = experiment: as above; settings: individual patients, within 98 and 168 h after first dose, relative to HPRT1 and pre-dose, negative = up-regulation
Procedure: as §1, §2, §3, §4, §5, §6, §7, §8, §9

CD86 = experiment: as above; settings: individual patients, within 98 and 168 h after first dose, relative to HPRT1 and pre-dose, negative = up-regulation
Procedure: as §1, §2, §3, §4, §5, §6, §7, §8, §9

CTSG = experiment: as above; settings: individual patients, within 98 and 168 h after first dose, relative to HPRT1 and pre-dose, negative = up-regulation
Procedure: as §1, §2, §3, §4, §5, §6, §7, §8, §9

GPR65 [1] = experiment: as above; settings: individual patients, within 98 and 168 h after first dose, relative to HPRT1 and pre-dose, negative = up-regulation
Procedure: as §1, §2, §3, §4, §5, §6, §7, §8, §9

ITGAM = experiment: as above; settings: individual patients, within 98 and 168 h after first dose, relative to HPRT1 and pre-dose, negative = up-regulation
Procedure: as §1, §2, §3, §4, §5, §6, §7, §8, §9

LYZ = experiment: as above; settings: individual patients, within 98 and 168 h after first dose, relative to HPRT1 and pre-dose, negative = up-regulation
Procedure: as §1, §2, §3, §4, §5, §6, §7, §8, §9

Ly96 = experiment: as above; settings: individual patients, within 98 and 168 h after first dose, relative to HPRT1 and pre-dose, negative = up-regulation
Procedure: as §1, §2, §3, §4, §5, §6, §7, §8, §9

S100A12 [2] = experiment: as above; settings: individual patients, within 98 and 168 h after first dose, relative to HPRT1 and pre-dose, negative = up-regulation
Procedure: as §1, §2, §3, §4, §5, §6, §7, §8, §9

VCAN = experiment: as above; settings: individual patients, within 98 and 168 h after first dose, relative to HPRT1 and pre-dose, negative = up-regulation
Procedure: as §1, §2, §3, §4, §5, §6, §7, §8, §9

VIM = experiment: as above; settings: individual patients, within 98 and 168 h after first dose, relative to HPRT1 and pre-dose, negative = up-regulation
Procedure: as §1, §2, §3, §4, §5, §6, §7, §8, §9

[3] = tested on: S100A12, VCAN, ITGAM, LY96, ANXA2, CD86, GPR65, CRISP9, LYZ, and VIM; experiment: Correlation of marker gene expression (qRT-PCR, peripheral blood) with response to ORY-1001; settings: day 5
Procedure: as §8, §9
Possible correlations between expression changes in marker genes described in table 5 and response to ORY-1001 treatment (see Table 2) were investigated.
The expression levels of Ly96 and ITGAM did additionally correlate with the variation of blast cells in bone marrow (see FIGS. 1A and 1B), particularly in M4/M5 subtypes, further supporting the utility of these marker genes in monitoring response to ORY-1001 treatment in easily accessible samples such as peripheral blood.

S100A12 and VCAN = S100A12 and VCAN gene expression in patients developing a differentiation syndrome; settings: patients developing a differentiation syndrome (Patients 01 and 09); within 98 and 168 h after the first dose
Procedure: as §8
For the analysis of the gene expression data, the time point (or time interval) showing the maximum response is typically selected. This time point/interval may change depending on the specific dose, administration scheme, etc. In the present study, all the gene expression and correlation analysis was performed by using the data obtained after administration of day 5, i.e. within the time interval between 98 and 168 h after the first dose. The maximum response observed within this time interval is referred to in the tables herein as “Maximum response (ΔΔCp) on day 5”. […]

GPR65 [4] = experiment: Gene expression by qRT-PCR in peripheral blood of acute leukemia patients; settings: individual patients
S100A12 [5] = experiment: as above; settings: individual patients
[6] = peripheral blood and/or bone marrow, extension cohort of 14 patients, all four FAB subtypes
[7] = patients showing both blast morphological differentiation and a decrease in blast cells, particularly M4/M5
[8] = patients showing no morphological differentiation and/or no effect or increase in blast cells
[9] = within 602 and 768 h after the first administration
[10] = within first 24 h after the first administration

## N[C@H]1CC[C@H](N[C@@H]2C[C@H]2c2ccccc2)CC1 [ORY-1001, (trans)-N1-((1R,2S)-2-phenylcyclopropyl)cyclohexane-1,4-diamine]
Blast cells; individual patients, peripheral blood, variation of blast % between pre- and post-treatment (day 7 to 29), 140 microgram/m2/day oral
  % Blast variation (peripheral blood): ↓ −32% (peripheral blood) and ↓ −55% (peripheral blood) ^e and =(peripheral blood) and ↓ −55% and =
Blast cells; [6]
  patients with decrease in blast cells: 6/14
  patients with morphologic blast differentiation: 5/14
ANXA2
  Maximum response (ΔΔCp) on day 5, ANXA2: 2.0 ΔΔCp and −1.1 ΔΔCp and −2.6 ΔΔCp and 1.9 ΔΔCp and −1.9 ΔΔCp and −2.0 ΔΔCp and −3.8 ΔΔCp and −1.6 ΔΔCp and −1.4 ΔΔCp and 3.2 ΔΔCp
CAMSAP2
  Maximum response (ΔΔCp) on day 5, CAMSAP2: −2.8 ΔΔCp and −1.9 ΔΔCp and 1.2 ΔΔCp and 3.1 ΔΔCp and 1.6 ΔΔCp and −3.7 ΔΔCp and −4.3 ΔΔCp and −2.5 ΔΔCp and −2.3 ΔΔCp and −3.0 ΔΔCp and −2.9 ΔΔCp and −1.4 ΔΔCp
CD86
  Maximum response (ΔΔCp) on day 5, CD86: −1.8 ΔΔCp and 2.2 ΔΔCp and 2.5 ΔΔCp and −2.9 ΔΔCp and −3.0 ΔΔCp and −2.0 ΔΔCp and −3.3 ΔΔCp and 0.8 ΔΔCp and −4.4 ΔΔCp and −2.5 ΔΔCp and −2.8 ΔΔCp and 1.3 ΔΔCp
CTSG
  Maximum response (ΔΔCp) on day 5, CTSG: 2.3 ΔΔCp and 3.9 ΔΔCp and 3.3 ΔΔCp and 1.8 ΔΔCp and 2.2 ΔΔCp and −1.8 ΔΔCp and 7.6 ΔΔCp and −3.6 ΔΔCp and −1.7 ΔΔCp and −2.5 ΔΔCp and −0.7 ΔΔCp
GPR65 [1]
  Maximum response (ΔΔCp) on day 5, GPR65: −1.8 ΔΔCp and −1.4 ΔΔCp and −1.3 ΔΔCp and −3.8 ΔΔCp and 3.1 ΔΔCp and −0.9 ΔΔCp and 2.3 ΔΔCp and −4.8 ΔΔCp and −3.0 ΔΔCp and −2.3 ΔΔCp and 4.4 ΔΔCp and −1.5 ΔΔCp
ITGAM
  Maximum response (ΔΔCp) on day 5, ITGAM: 1.7 ΔΔCp and 1.6 ΔΔCp and 2.1 ΔΔCp and −2.3 ΔΔCp and 3.0 ΔΔCp and 3.1 ΔΔCp and −1.3 ΔΔCp and 3.2 ΔΔCp and −3.0 ΔΔCp and −3.7 ΔΔCp and −2.8 ΔΔCp and 1.8 ΔΔCp
LYZ
  Maximum response (ΔΔCp) on day 5, LYZ: 2.9 ΔΔCp and 3.2 ΔΔCp and −1.2 ΔΔCp and 1.7 ΔΔCp and −2.3 ΔΔCp and 2.5 ΔΔCp and −2.2 ΔΔCp and −3.9 ΔΔCp and −0.6 ΔΔCp and 2.4 ΔΔCp and 1.2 ΔΔCp
Ly96
  Maximum response (ΔΔCp) on day 5, Ly96: −1.6 ΔΔCp and −2.9 ΔΔCp and 2.3 ΔΔCp and −3.3 ΔΔCp and 3.0 ΔΔCp and −4.3 ΔΔCp and −3.1 ΔΔCp and −4.8 ΔΔCp and 2.4 ΔΔCp and −3.2 ΔΔCp and −5.1 ΔΔCp and −4.1 ΔΔCp and −1.5 ΔΔCp
S100A12 [2]
  Maximum response (ΔΔCp) on day 5, S100A12: −4.5 ΔΔCp and −1.7 ΔΔCp and 1.7 ΔΔCp and 1.3 ΔΔCp and 2.7 ΔΔCp and −5.0 ΔΔCp and 3.0 ΔΔCp and 0.8 ΔΔCp and 2.4 ΔΔCp and 2.0 ΔΔCp and 2.1 ΔΔCp and 3.9 ΔΔCp and −2.1 ΔΔCp
VCAN
  Maximum response (ΔΔCp) on day 5, VCAN: 2.2 ΔΔCp and 2.0 ΔΔCp and −0.8 ΔΔCp and −9.1 ΔΔCp and 1.8 ΔΔCp and 3.4 ΔΔCp and −2.2 ΔΔCp and −2.1 ΔΔCp and −4.2 ΔΔCp and −1.2 ΔΔCp and 1.6 ΔΔCp and 1.2 ΔΔCp
VIM
  Maximum response (ΔΔCp) on day 5, VIM: −1.2 ΔΔCp and −1.3 ΔΔCp and −0.5 ΔΔCp and 2.2 ΔΔCp and 1.7 ΔΔCp and −2.4 ΔΔCp and −3.4 ΔΔCp and −2.2 ΔΔCp and −0.4 ΔΔCp and 1.3 ΔΔCp and −0.6 ΔΔCp
[3]; [7]
  up-regulation of the gene markers (fold): 1.3 to 550 fold
  up-regulation of the gene markers (ΔΔCp): −0.4 to −9.1 ΔΔCp
[3]; [8]
  down-regulation of some of the genes (fold change): 0.6 to 0.05 fold
  down-regulation of some of the genes (ΔΔCp): 0.8 to 4.4 ΔΔCp
S100A12 and VCAN
  S100A12 and VCAN exacerbated up-regulation (fold): 18 to 550 fold
  S100A12 and VCAN exacerbated up-regulation (ΔΔCp): −4.2 to −9.1 ΔΔCp
GPR65 [4]; [9]
  GPR65 Day 26 maximum response: −3.2 ΔΔCp and −4.8 ΔΔCp
GPR65 [4]; [10]
  GPR65 Day 1 maximum response: 2.2 ΔΔCp and −1.1 ΔΔCp
S100A12 [5]; [9]
  S100A12 Day 26 maximum response: −7.1 ΔΔCp and −2.8 ΔΔCp
S100A12 [5]; [10]
  S100A12 Day 1 maximum response: −2.1 ΔΔCp and −0.4 ΔΔCp
